US7416868B2, “Polyene polyketides, processes for their production and their use as a pharmaceutical” (Thallion Pharmaceuticals, Inc., priority 2003, dated 2008)
≈ marks a conversion by molar mass, not a printed value.

Legend:
[1] = tested on: A. fumigatus - LSPQ 204305; experiment: Disk diffusion assay, minimum effective concentration (MEC) and zone of inhibition (ZOI); format: cell-based, Aspergillus fumigatus
A. flavus - ATCC 204304 = experiment: as above; format: cell-based, Aspergillus flavus
C. albicans SC5314 = experiment: Mouse model of disseminated candidiasis, survival; format: in vivo; conditions: CD-1 mice infected i.v. with C. albicans SC5314; 1 or 3 mg/kg i.p. once daily for 4 days
Procedure: Compound 2(a) was provided as a dry powder with an estimated purity of 95+%. Fungizone (amphotericin B desoxycholate, to be used as a comparitor), was also provided as a dry powder with an estimated purity of 95+%. The compound 2(a) and Fungizone were stored as dry powders at −80° C. until the day of administration.
Female mice (species Mus musculus, strain CD-1, Charles River) with body weight range of 22-24 g were used in the study. […] All animal experiments were performed at the Step-Justine Hospital (Montreal, Quebec) according to ethical guidelines of animal experimentation of the ethical committee of the hospital. During the study, dead or apparently sick animals were promptly removed and sick mice were euthanized upon removal from the cage.
The animals were maintained in rooms under controlled conditions of temperature (23±2° C.), humidity (45±5%), photoperiodicity (12 hrs light/12 hrs dark) and air exchange. The animals were housed in polycarbonate cages (4/single cage) equipped to provide food and water. Sterile wood shavings were used for animal bedding and the bedding was replaced every other day. […]
The treatment regimen was repeated once daily for a total of 4 days. […] Moribund animals were scored as non-survivors and euthanized by CO2 inhalation. […]

[2] = tested on: 60 different human tumor cell lines; experiment: NCI in vitro antiproliferative screen (SRB), GI50; format: cell-based
Procedure: In vitro antipoliferative study of Compound 2a was performed by the National Cancer Institute (National Institutes of Health, Bethesda, Md., USA) against a panel of cancer cell lines in order to determine the concentrations needed to obtain a 50% inhibition of cell proliferation (IC50). The operation of this unique screen utilizes 60 different human tumor cell lines, representing leukemia, melanoma, and cancers of the lung, colon, brain, ovary, breast prostate and kidney. Compound 2(a) was provided as a lyophilized powder with an estimated purity of 90+%. The compound was stored at −20° C. until day of use.
The human tumor cell lines of the cancer-screening panel were grown in RPMI 1640 medium containing 5% fetal bovine serum and 2 mM L-glutamine. For a typical screening experiment, cells were inoculated into 96 well microtiter plates in 100 μl at plating densities ranging from 5000 to 40,000 cells/well depending on the doubling time of individual cell lines (Table 8). […]
Following drug addition, the plates were incubated for an additional 48 hours at 37° C., 5% CO2, 95% air, and 100% relative humidity. […] Bound stain was subsequently solubilized with 10 mM trizma base, and the absorbance was read on an automated plate reader at a wavelength of 515 nm. […]
The growth inhibitory power of compound 2(a) was measured by NCl utilizing the GI50 value, rather than the classical IC50 value. […]

Aspergillus species = experiment: Broth microdilution MIC determination, filamentous fungi
Procedure: (§1) Test compound preparation: The test article was prepared as 100× stock solutions in DMSO, with concentrations ranging from 3.2 mg/ml to 0.0625 mg/ml (a two-fold dilution series over 10 points). The first dilution (3.2 mg/ml) was prepared by resuspending 0.5 mg of each test article in 156.25 μl of DMSO.
(§2) Inoculum preparation: For fungal strains, the inoculum was prepared as follows. From an overnight culture in Yeast Media broth, cell density was adjusted in 0.85% saline to 0.5 McFarland. This procedure yielded a stock suspension of about 5×10^6 cells/ml. Following thorough vortexing, a working suspension was prepared by diluting the stock 1:50 in RPMI 1640, and then further diluting it 1:20 with RPMI 1640 to obtain the 2× test inoculum (about 5×10^3 cells/ml). For filamentous fungi, the inoculum was prepared as follows. From a spore suspension kept at 4° C., an appropriate dilution in 0.85% saline was made to obtain a final optical density 600 between 0.09-0.11. A working suspension was then prepared by diluting the spore suspension 50 times in RPMI to obtain the 2× test inoculum (about 1×10^5 CFU/ml).
(§3) MIC Determination: The 100× test article solutions were diluted 50 times in RPMI 1640, MH or BHI media and dispensed in a 96 well plate, one concentration per column, 10 columns in total. The 11th column contained RPMI 1640 with 1% DMSO with cells, the 12th column contained 100 μl of RPMI 1640 alone.
(§4) 50 μl of the final cell dilution (yeast, filamentous fungi or bacteria) of each indicator strain was added to each corresponding well of the microplate containing 50 μl of diluted drug or media alone. Assay plates were incubated at 35° C. for up to 72 hrs. MIC readings were determined at 24 and 48 hrs for the Candida and Aspergillus species, and at 48 and 72 hrs for Cryptococcus neoformans. MIC readout for each indicator was determined as the lowest concentration of test compound resulting in total absence of growth.

Candida species = experiment: Broth microdilution MIC determination (NCCLS M27-A adapted), yeasts
Procedure: as §1, §2, §3, §4

For CC(C=CCCC=CC=CC=CC=CC(=O)NC1=C(O)CCC1=O)C(O)C(C)C(O)C=CC=CC=CC=CC=CCC(OC1OC(C)C(O)C(O)C1O)C(C)C(=O)CC(O)CC(O)CC(O)C=CCC(O)CC(O)CC(O)CC(O)C=CCC(O)CC(O)CCCN (stereo not shown) [Compound 2(a), 56-Amino-15,17,33,35,37,41,43,45,47,51,53-undecahydroxy-14,16,30-trimethyl-31-oxo-29-(3,4,5-trihydroxy-6-methyl-tetrahydro-pyran-2-yloxy)-hexapentaconta-2,4,6,8,12,18,20,22,24,26,38,48-dodecaenoic acid (2-hydroxy-5-oxo-cyclopent-1-enyl)-amide], the “ZOI (zone of inhibition of fungal growth at the MEC)” value ([1]; Aspergillus fumigatus, at MEC, 24 hours of incubation) was 2.7 mm, the “antifungal activity against Aspergillus fumigatus” value ([1]; ZOI after 24 hours at 35° C.) was “active” and the “ZOI (zone of inhibition of fungal growth at the MEC)” value (A. flavus - ATCC 204304; Aspergillus flavus, at MEC, 24 hours of incubation) was 2.7 mm. The “antifungal activity against Aspergillus flavus” value (A. flavus - ATCC 204304; ZOI after 24 hours at 35° C.) was “active”, the “increase of median survival time of infected mice” value (C. albicans SC5314) was 4 fold and the GI50 level ([2]; SN12C/renal carcinoma, HOP92/non-small cell lung carcinoma, HCC2998/colon carcinoma) was “nanomolar or picomolar level”. For the same compound, the “anticancer activity against human tumor cell lines” value ([2]; all cell lines assayed in the NCI screening panel) was “effective against all the human tumor cell lines”, the MIC (Aspergillus species; 24 h, Aspergillus flavus ATCC 204304, 24 hrs) was 4 µg/mL (≈ 3.08 µM) and the MIC (Aspergillus species; 24 h, Aspergillus fumigatus ATCC 204305, 24 hrs) was 16 µg/mL (≈ 12.3 µM). It also gave an MIC (Aspergillus species; 48 h, Aspergillus flavus ATCC 204304, 48 hrs) of 8 µg/mL (≈ 6.17 µM), an MIC (Aspergillus species; 48 h, Aspergillus fumigatus ATCC 204305, 48 hrs) of 16 µg/mL (≈ 12.3 µM) and an MIC (Candida species; 24 h, Candida albicans ATCC 10231, 24 hrs) of 4 µg/mL (≈ 3.08 µM). For the same compound, the MIC (Candida species; 24 h, Candida glabrata LSPQ 0250, 24 hrs) was 4 µg/mL (≈ 3.08 µM), the MIC (Candida species; 24 h, Candida krusei LSPQ 0309, 24 hrs) was 8 µg/mL (≈ 6.17 µM) and the MIC (Candida species; 24 h, Candida lusitaniae ATCC 200953, 24 hrs) was 4 µg/mL (≈ 3.08 µM). It also gave an MIC (Candida species; 48 h, Candida albicans ATCC 10231, 48 hrs) of 4 µg/mL (≈ 3.08 µM), an MIC (Candida species; 48 h, Candida glabrata LSPQ 0250, 48 hrs) of 8 µg/mL (≈ 6.17 µM) and an MIC (Candida species; 48 h, Candida krusei LSPQ 0309, 48 hrs) of 8 µg/mL (≈ 6.17 µM). It also gave an MIC (Candida species; 48 h, Candida lusitaniae ATCC 200953, 48 hrs) of 4 µg/mL (≈ 3.08 µM).
